Data published in patent publication US20240287080A1 (IDEAYA Biosciences Inc., priority 2021, published 2024).

target: T1, Pol theta (1-899) (Homo sapiens, UniProt O75417); assay: Pol theta ATPase activity, NADH oxidation-coupled enzymatic assay (ATPase NADH coupling: Standard Screening: hPolQ); type: biochemical; details: Pol theta (1-899) 5 nM, NADH oxidation-coupled ATPase assay; compounds of Table 3
T1 construct: Pol theta (1-899) (5 nM) in assay buffer
In short: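 Rates of ATP hydrolysis taken from 60-min A340 traces of NADH oxidation via PK/LDH coupling, then fit four-parameter for IC50, Hill slope and max inhibition. Enzyme (5 nM, 1-899) and compounds preincubated 15 min before ATP 100 μM and 50-thymine ssDNA 300 nM (stock, equal volume added).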

T1 sequence (O75417 1-899): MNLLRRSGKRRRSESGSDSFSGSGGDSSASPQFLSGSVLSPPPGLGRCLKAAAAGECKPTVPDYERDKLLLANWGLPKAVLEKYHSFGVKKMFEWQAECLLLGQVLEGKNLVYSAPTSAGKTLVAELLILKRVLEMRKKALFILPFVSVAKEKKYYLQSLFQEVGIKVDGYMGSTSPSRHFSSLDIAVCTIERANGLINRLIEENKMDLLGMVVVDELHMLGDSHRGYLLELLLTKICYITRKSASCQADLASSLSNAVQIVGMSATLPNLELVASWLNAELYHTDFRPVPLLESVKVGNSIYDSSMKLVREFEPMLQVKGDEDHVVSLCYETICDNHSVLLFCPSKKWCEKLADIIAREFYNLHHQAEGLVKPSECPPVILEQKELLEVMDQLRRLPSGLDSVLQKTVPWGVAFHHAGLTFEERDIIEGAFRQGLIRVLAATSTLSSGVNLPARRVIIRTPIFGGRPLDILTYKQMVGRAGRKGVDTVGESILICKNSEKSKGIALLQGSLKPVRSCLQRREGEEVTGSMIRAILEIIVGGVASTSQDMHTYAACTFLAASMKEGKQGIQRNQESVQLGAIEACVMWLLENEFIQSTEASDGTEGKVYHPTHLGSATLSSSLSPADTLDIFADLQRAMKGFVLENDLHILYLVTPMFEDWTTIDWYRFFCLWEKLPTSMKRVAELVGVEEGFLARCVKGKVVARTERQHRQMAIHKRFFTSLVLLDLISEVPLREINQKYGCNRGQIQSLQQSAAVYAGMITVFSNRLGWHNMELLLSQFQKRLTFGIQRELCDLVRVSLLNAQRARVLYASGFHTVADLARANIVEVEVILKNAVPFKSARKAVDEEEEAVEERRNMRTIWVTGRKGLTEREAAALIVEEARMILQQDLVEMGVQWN

Structure (SMILES)	IC50 [nM]
COc1nnc(NC(=O)c2cnc(C)cc2-c2ccc3c(c2)CCO3)s1 [Example 380, 4-(2,3-dihydro-1-benzofuran-5-yl)-N-(5-methoxy-1,3,4-thiadiazol-2-yl)-6-methylpyridine-3-carboxamide]	1000 to 10000
COc1nnc(NC(=O)c2cnc(C)cc2-c2ccc3nc[nH]c3c2)s1 [Example 490, 4-(1H-1,3-benzodiazol-6-yl)-N-(5-methoxy-1,3,4-thiadiazol-2-yl)-6-methylpyridine-3-carboxamide]	1000 to 10000
COc1nnc(NC(=O)c2cnc(C)cc2-c2cccc(S(N)(=O)=O)c2)s1 [Example 385, N-(5-methoxy-1,3,4-thiadiazol-2-yl)-6-methyl-4-(3-sulfamoylphenyl)pyridine-3-carboxamide]	1000 to 10000
CNC(=O)c1cncc(-c2cc(C)ncc2C(=O)Nc2nnc(OC)s2)c1 [Example 339, N3′-(5-methoxy-1,3,4-thiadiazol-2-yl)-N5,6′-dimethyl-[3,4′-bipyridine]-3′,5-dicarboxamide]	1000 to 10000
COc1cnc(Cl)cc1-c1cc(C)ncc1C(=O)Nc1nnc(O[C@@H]2CC[C@@]23CCOC3)s1 (racemic) [Example 295, rac-N-(5-(((1R,4S)-6-oxaspiro[3.4]octan-1-yl)oxy)-1,3,4-thiadiazol-2-yl)-2′-chloro-5′-methoxy-6-methyl-[4,4′-bipyridine]-3-carboxamide]	≤ 200
COc1cnc(C)cc1-c1cc(C)ncc1C(=O)Nc1nnc(OC(CC(N)=O)C(F)(F)F)s1 (stereo not drawn) [Example 324, N-(5-((4-amino-1,1,1-trifluoro-4-oxobutan-2-yl)oxy)-1,3,4-thiadiazol-2-yl)-5′-methoxy-2′,6-dimethyl-[4,4′-bipyridine]-3-carboxamide]	≤ 200
COc1nnc(NC(=O)c2cnc(C)cc2-c2cccc(CC#N)c2)s1 [Example 477, 4-[3-(cyanomethyl)phenyl]-N-(5-methoxy-1,3,4-thiadiazol-2-yl)-6-methylpyridine-3-carboxamide]	1000 to 10000
COc1nnc(NC(=O)c2cnc(C)cc2-c2ccc3c(c2)OCO3)s1 [Example 409, 4-(2H-1,3-benzodioxol-5-yl)-N-(5-methoxy-1,3,4-thiadiazol-2-yl)-6-methylpyridine-3-carboxamide]	500 to 1000
COc1cnc(C)cc1-c1cc(C)ncc1C(=O)Nc1nnc(O[C@H]2COC[C@@H]2OC(C)C)s1 [Example 246]	≤ 200

Other lines, results leading:

IC50 [nM]	Structure (SMILES)
1000 to 10000	COc1nnc(NC(=O)c2cnc(C)cc2-c2cccs2)s1 [Example 360, N-(5-methoxy-1,3,4-thiadiazol-2-yl)-6-methyl-4-(thiophen-2-yl)pyridine-3-carboxamide]
≤ 200	COc1cnc(C)c(F)c1-c1cc(C)ncc1C(=O)Nc1nnc(OC2([C@@H]3CCOC3)CC2)s1 (single isomer, unassigned) [Example 293]
≤ 200	COc1nnc(NC(=O)c2cc(OC(F)F)ncc2-c2cc(Cl)ncc2OC)s1 [Example 265, 2′-chloro-6-(difluoromethoxy)-5′-methoxy-N-(5-methoxy-1,3,4-thiadiazol-2-yl)-[3,4′-bipyridine]-4-carboxamide]
500 to 1000	COc1nnc(NC(=O)c2cnc(C)cc2-c2csc3cnccc23)s1 [Example 425, N-(5-methoxy-1,3,4-thiadiazol-2-yl)-6-methyl-4-{thieno[2,3-c]pyridin-3-yl}pyridine-3-carboxamide]
200 to 500	COc1nnc(NC(=O)c2cc(C#N)ncc2-c2cc(Cl)ncc2OC)s1 [Example 290, 2′-chloro-6-cyano-5′-methoxy-N-(5-methoxy-1,3,4-thiadiazol-2-yl)-[3,4′-bipyridine]-4-carboxamide]
≤ 200	Cc1cc(-c2cc(Cl)ncc2OC(F)F)c(C(=O)Nc2nnc(O[C@H]3CCC[C@@H](O)C3)s2)cn1 (single isomer, unassigned) [Example 253]
1000 to 10000	COc1nnc(NC(=O)c2cnc(C)cc2-c2ccc3c(c2)C(=O)NC3)s1 [Example 332, N-(5-methoxy-1,3,4-thiadiazol-2-yl)-6-methyl-4-(3-oxo-2,3-dihydro-1H-isoindol-5-yl)pyridine-3-carboxamide]
≤ 200	COc1nnc(NC(=O)c2cnc(C)cc2-c2cc(Cl)cc3c2OCCN3)s1 [Example 320, 4-(6-chloro-3,4-dihydro-2H-benzo[b][1,4]oxazin-8-yl)-N-(5-methoxy-1,3,4-thiadiazol-2-yl)-6-methylnicotinamide]
≤ 200	COc1nnc(NC(=O)c2cnc(C)cc2-c2ccc(OC(C)C)c(C#N)c2)s1 [Example 473, 4-[3-cyano-4-(propan-2-yloxy)phenyl]-N-(5-methoxy-1,3,4-thiadiazol-2-yl)-6-methylpyridine-3-carboxamide]

same assay, conditions: Table 4; Pol theta (1-899) 5 nM, ATP, dT50 ssDNA

Structure (SMILES)	IC50 [nM]
COc1nnc(NC(=O)c2cnc(C)cc2-c2cc([C@@H](C)O)ncc2OC)s1 (single isomer, unassigned) [Example 69]	1000 to 10000
COc1nnc(NC(=O)c2cnc(C)cc2-c2c(OC)cnc(Cl)c2F)s1 [Example 47, 2′-chloro-3′-fluoro-5′-methoxy-N-(5-methoxy-1,3,4-thiadiazol-2-yl)-6-methyl-(4,4′-bipyridine)-3-carboxamide]	≤ 200

Second part, the molecule after the results:

IC50 [nM]	Structure (SMILES)
≤ 200	COc1nnc(NC(=O)c2cnc(C)cc2-c2c(F)cccc2OC(F)F)s1 [Example 32, 4-(2-(difluoromethoxy)-6-fluorophenyl)-N-(5-methoxy-1,3,4-thiadiazol-2-yl)-6-methylnicotinamide]
≤ 200	COc1cnc(Cl)cc1-c1cc(C)ncc1C(=O)Nc1nnc(O[C@@H]2CC[C@H](O)C2)s1 (single isomer, unassigned) [Example 59]
≤ 200	COc1nnc(NC(=O)c2cnc(C)cc2-c2cc(C3CC3)ncc2OC)s1 [Example 51, 2′-cyclopropyl-5′-methoxy-N-(5-methoxy-1,3,4-thiadiazol-2-yl)-6-methyl-(4,4′-bipyridine)-3-carboxamide]
≤ 200	COc1nnc(NC(=O)c2cnc(C)cc2-c2cc(C)ccc2OC)s1 [Example 30, N-(5-methoxy-1,3,4-thiadiazol-2-yl)-4-(2-methoxy-5-methylphenyl)-6-methylnicotinamide]
≤ 200	COc1cnc(Cl)cc1-c1cc(C)ncc1C(=O)Nc1nnc(OCC(F)(F)F)s1 [Example 29, 2′-chloro-5′-methoxy-6-methyl-N-(5-(2,2,2-trifluoroethoxy)-1,3,4-thiadiazol-2-yl)-(4,4′-bipyridine)-3-carboxamide]

same assay, conditions: Table 5; Pol theta (1-899) 5 nM, ATP, dT50 ssDNA

Structure (SMILES)	IC50 [nM]
COc1cnc(C)c(F)c1-c1cc(C)ncc1C(=O)Nc1nnc(O[C@H]2CC[C@](C)(O)CC2)s1 (single isomer, unassigned) [Example 224, 3′-fluoro-N-(5-(((1r,4r)-4-hydroxy-4-methylcyclohexyl)oxy)-1,3,4-thiadiazol-2-yl)-5′-methoxy-2′,6-dimethyl-(4,4′-bipyridine)-3-carboxamide]	≤ 200
COc1cnc(Cl)cc1-c1cc(C)ncc1C(=O)Nc1nnc(O[C@H]2CC[C@H](OC)CC2)s1 (single isomer, unassigned) [Example 125, 2′-chloro-5′-methoxy-N-(5-(((1r,4r)-4-methoxycyclohexyl)oxy)-1,3,4-thiadiazol-2-yl)-6-methyl-(4,4′-bipyridine)-3-carboxamide]	≤ 200
COc1cnc(C)c(F)c1-c1cc(C)ncc1C(=O)Nc1nnc(O[C@H]2CC[C@@](C)(O)CC2)s1 (single isomer, unassigned) [Example 221, 3′-fluoro-N-(5-(((1s,4s)-4-hydroxy-4-methylcyclohexyl)oxy)-1,3,4-thiadiazol-2-yl)-5′-methoxy-2′,6-dimethyl-(4,4′-bipyridine)-3-carboxamide]	≤ 200
COc1cnc(Cl)cc1-c1cc(C)ncc1C(=O)Nc1nnc(O[C@H]2CC[C@@H]([C@H](C)O)CC2)s1 (single isomer, unassigned) [Example 213]	≤ 200
COc1nnc(NC(=O)c2cnc(C)cc2-c2cccn3nnnc23)s1 [Example 85, N-(5-methoxy-1,3,4-thiadiazol-2-yl)-6-methyl-4-(tetrazolo(1,5-a)pyridin-8-yl)nicotinamide]	1000 to 10000
COc1cnc(Cl)cc1-c1cc(C)ncc1C(=O)Nc1nnc(O[C@H]2CCC[C@](C)(O)C2)s1 (racemic) [Example 178, rac-2′-chloro-N-(5-(((1R,3R)-3-hydroxy-3-methylcyclohexyl)oxy)-1,3,4-thiadiazol-2-yl)-5′-methoxy-6-methyl-(4,4′-bipyridine)-3-carboxamide]	≤ 200

Second part, the molecule after the results:

IC50 [nM]	Structure (SMILES)
≤ 200	COc1cnc(Cl)cc1-c1cc(C)ncc1C(=O)Nc1nnc(O[C@H]2CO[C@H](C)C2)s1 (single isomer, unassigned) [Example 192]
≤ 200	COc1cnc(Cl)cc1-c1cc(C)ncc1C(=O)Nc1nnc(O[C@H]2CCC[C@@H](O)C2)s1 (single isomer, unassigned) [Example 159]
≤ 200	COc1cnc(Cl)cc1-c1cc(C)ncc1C(=O)Nc1nnc(O[C@H]2CCO[C@@H]2C)s1 (racemic) [Example 93, rac-2′-Chloro-5′-methoxy-6-methyl-N-(5-(((2R,3S)-2-methyltetrahydrofuran-3-yl)oxy)-1,3,4-thiadiazol-2-yl)-(4,4′-bipyridine)-3-carboxamide]
≤ 200	COc1cnc(Cl)cc1-c1cc(C)ncc1C(=O)Nc1nnc(O[C@H]2CC[C@@H]2O)s1 (single isomer, unassigned) [Example 119]

same assay, conditions: Table 5; values given as bound; Pol theta (1-899) 5 nM, ATP, dT50 ssDNA

IC50 [nM]	Structure (SMILES)
> 10000	COc1nnc(NC(=O)c2cnc(CN3CC(OC)C3)cc2-c2cc(Cl)ncc2OC)s1 [Example 144, 2′-chloro-5′-methoxy-N-(5-methoxy-1,3,4-thiadiazol-2-yl)-6-((3-methoxyazetidin-1-yl)methyl)-(4,4′-bipyridine)-3-carboxamide]
